Source: BindingDB's records for PubMed 12232544 (Emory University, 2002)
“And” between values parts separate entries of the source, which are not always exact repeats. Identical values can stand only once. Counter-ions that a name gives are not always drawn.

Experiments:
Histamine H1 receptor = Histamine H1 receptor (Cavia porcellus, UniProt P31389)
[1] = biological target: T1, 5-hydroxytryptamine receptor 2C (Sus scrofa, UniProt K7GSR7)
T1 sequence (K7GSR7 whole entry): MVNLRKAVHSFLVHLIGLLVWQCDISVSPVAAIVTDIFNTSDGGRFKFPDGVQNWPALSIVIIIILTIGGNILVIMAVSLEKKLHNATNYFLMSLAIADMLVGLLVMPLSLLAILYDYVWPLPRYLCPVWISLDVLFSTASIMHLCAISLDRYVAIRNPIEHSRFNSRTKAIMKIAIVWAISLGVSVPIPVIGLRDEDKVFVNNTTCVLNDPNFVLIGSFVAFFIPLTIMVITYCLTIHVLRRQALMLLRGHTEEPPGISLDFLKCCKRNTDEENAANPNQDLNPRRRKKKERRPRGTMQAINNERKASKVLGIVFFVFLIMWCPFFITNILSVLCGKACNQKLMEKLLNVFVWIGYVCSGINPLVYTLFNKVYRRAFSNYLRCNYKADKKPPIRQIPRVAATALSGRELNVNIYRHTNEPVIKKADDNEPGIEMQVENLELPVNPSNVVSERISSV

[2] = biological target: T2, Alpha-1A adrenergic receptor (Homo sapiens, UniProt P35348)
T2 sequence (P35348 whole entry): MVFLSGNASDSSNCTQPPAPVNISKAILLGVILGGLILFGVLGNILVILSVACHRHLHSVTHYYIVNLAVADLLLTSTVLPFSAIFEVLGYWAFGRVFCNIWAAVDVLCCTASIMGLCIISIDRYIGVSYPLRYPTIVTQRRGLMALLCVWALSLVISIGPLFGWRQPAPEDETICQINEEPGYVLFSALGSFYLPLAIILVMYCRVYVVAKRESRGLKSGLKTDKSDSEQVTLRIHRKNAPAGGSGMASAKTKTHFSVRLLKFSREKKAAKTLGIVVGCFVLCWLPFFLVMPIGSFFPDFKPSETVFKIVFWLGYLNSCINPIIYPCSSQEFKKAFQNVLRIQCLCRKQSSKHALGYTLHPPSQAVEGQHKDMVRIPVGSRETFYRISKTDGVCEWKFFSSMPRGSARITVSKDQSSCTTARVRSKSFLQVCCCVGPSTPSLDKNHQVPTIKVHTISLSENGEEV

Sequence of Histamine H1 receptor (P31389 whole entry): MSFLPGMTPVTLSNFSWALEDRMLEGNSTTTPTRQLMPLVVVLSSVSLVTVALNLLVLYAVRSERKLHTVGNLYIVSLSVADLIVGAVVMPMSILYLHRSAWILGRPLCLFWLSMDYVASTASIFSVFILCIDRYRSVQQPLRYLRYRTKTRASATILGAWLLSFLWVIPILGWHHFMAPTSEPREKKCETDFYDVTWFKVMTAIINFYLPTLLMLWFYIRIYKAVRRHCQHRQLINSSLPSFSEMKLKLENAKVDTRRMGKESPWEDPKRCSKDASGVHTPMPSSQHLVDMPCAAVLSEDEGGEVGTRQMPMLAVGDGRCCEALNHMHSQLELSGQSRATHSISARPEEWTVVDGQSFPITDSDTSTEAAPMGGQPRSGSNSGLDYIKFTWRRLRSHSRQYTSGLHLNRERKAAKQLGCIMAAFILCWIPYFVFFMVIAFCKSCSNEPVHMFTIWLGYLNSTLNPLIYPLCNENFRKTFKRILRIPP

Row | Compound | Ki (Histamine H1 receptor) | Ki [1] | Ki [2] [nM]
1 | CN(C)CCC[C@]1(c2ccc(F)cc2)OCc2cc(C#N)ccc21 [R-citalopram] | 181 nM | 1800 nM | –
2 | Fc1ccc([C@@H]2CCNC[C@H]2COc2ccc3c(c2)OCO3)cc1 [PAROXETINE] | > 10000 nM | 9030 nM | –
3 | CN[C@@H]1CC[C@@H](c2ccc(Cl)c(Cl)c2)c2ccccc21 [[4-(3,4-Dichloro-phenyl)-1,2,3,4-tetrahydro-naphthalen-1-yl]-methyl-amine] | 6580 nM | 2300 nM | 188
4 | CNCC[C@@H](Oc1ccc(C(F)(F)F)cc1)c1ccccc1 [Prozac] | 1550 nM | – | –
5 | CN(C)CCCC1(c2ccc(F)cc2)OCc2cc(C#N)ccc21 (stereo not drawn) [CITALOPRAM HYDROBROMIDE] | 283 nM and 1970 nM | 2050 nM and 2530 nM | –
6 | CNCC[C@@H](Oc1ccc(C(F)(F)F)cc1)c1ccccc1 [Fluoxetine-R-(-)] | 812 nM | – | –
7 | COCCCC/C(=N\OCCN)c1ccc(C(F)(F)F)cc1 [(1E)-5-methoxy-1-[4-(trifluoromethyl)phenyl]pentan-1-one O-(2-aminoethyl)oxime] | > 10000 nM | 5790 nM | –
